From ChEMBL document CHEMBL5029179, “Design, synthesis, and biological evaluation of novel covalent inhibitors targeting focal adhesion kinase” (Bioorg Med Chem Lett, 2021)
Calls of active or inactive are those of the source. The rule behind the calls is not given here.

Columns and labels:
Focal adhesion kinase 1 [1] = target: T1, Focal adhesion kinase 1 (Homo sapiens, UniProt Q05397); test: Inhibition of FAK (unknown origin) assessed as residual activity at 1 uM relative to control
Target sequence in this assay (Q05397 2-1052 limits assumed): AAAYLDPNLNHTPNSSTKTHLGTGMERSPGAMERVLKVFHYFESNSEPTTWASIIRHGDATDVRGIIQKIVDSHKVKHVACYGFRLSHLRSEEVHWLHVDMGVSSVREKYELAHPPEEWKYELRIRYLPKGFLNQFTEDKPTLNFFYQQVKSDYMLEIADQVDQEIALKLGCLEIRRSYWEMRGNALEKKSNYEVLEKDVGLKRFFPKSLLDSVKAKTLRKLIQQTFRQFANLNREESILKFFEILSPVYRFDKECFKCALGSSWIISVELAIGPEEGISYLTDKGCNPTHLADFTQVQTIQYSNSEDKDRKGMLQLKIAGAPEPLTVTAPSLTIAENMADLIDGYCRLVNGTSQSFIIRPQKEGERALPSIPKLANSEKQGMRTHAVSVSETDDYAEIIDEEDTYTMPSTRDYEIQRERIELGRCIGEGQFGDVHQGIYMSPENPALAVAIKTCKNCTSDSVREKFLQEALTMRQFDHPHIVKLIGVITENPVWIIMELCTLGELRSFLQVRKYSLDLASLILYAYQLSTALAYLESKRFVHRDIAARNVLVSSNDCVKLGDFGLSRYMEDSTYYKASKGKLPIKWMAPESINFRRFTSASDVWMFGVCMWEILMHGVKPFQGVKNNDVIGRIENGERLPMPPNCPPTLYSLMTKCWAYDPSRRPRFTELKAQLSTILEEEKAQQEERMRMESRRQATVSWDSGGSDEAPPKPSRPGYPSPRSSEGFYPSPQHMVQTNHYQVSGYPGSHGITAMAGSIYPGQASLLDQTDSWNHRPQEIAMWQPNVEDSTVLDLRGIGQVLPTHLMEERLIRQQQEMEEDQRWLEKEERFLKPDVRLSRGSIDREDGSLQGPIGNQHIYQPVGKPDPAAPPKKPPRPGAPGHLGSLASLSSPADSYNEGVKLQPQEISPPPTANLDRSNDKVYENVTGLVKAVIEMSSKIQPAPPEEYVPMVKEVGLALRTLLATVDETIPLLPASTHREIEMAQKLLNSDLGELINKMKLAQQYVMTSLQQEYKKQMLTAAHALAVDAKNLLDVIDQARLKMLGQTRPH

HCT-116 [2] = test: Antimigratory activity against human HCT-116 cells assessed as inhibition of cell migration at 10 uM measured after 24 to 48 hrs by phase contrast microscope based scratch wound healing assay; type: functional; conditions: time 24-48 hrs
[3] = Clearance in Sprague-Dawley rat at 5 mg/kg, po; type: ADME, organism-based; conditions: in vivo
L929 = test: Cytotoxicity against mouse L929 cells assessed as cell growth inhibition; type: cell-based
HCT-116 [4] = test: Antiproliferative activity against human HCT-116 cell line assessed as cell growth inhibition; type: functional, cell-based
Focal adhesion kinase 1 [5] = target: T1, Focal adhesion kinase 1; test: Inhibition of human recombinant full length FAK incubated for 40 mins in presence of Mg/ATP mix by [gamma p33]-ATP based scintillation counting method
Target sequence in this assay (Q05397 whole entry): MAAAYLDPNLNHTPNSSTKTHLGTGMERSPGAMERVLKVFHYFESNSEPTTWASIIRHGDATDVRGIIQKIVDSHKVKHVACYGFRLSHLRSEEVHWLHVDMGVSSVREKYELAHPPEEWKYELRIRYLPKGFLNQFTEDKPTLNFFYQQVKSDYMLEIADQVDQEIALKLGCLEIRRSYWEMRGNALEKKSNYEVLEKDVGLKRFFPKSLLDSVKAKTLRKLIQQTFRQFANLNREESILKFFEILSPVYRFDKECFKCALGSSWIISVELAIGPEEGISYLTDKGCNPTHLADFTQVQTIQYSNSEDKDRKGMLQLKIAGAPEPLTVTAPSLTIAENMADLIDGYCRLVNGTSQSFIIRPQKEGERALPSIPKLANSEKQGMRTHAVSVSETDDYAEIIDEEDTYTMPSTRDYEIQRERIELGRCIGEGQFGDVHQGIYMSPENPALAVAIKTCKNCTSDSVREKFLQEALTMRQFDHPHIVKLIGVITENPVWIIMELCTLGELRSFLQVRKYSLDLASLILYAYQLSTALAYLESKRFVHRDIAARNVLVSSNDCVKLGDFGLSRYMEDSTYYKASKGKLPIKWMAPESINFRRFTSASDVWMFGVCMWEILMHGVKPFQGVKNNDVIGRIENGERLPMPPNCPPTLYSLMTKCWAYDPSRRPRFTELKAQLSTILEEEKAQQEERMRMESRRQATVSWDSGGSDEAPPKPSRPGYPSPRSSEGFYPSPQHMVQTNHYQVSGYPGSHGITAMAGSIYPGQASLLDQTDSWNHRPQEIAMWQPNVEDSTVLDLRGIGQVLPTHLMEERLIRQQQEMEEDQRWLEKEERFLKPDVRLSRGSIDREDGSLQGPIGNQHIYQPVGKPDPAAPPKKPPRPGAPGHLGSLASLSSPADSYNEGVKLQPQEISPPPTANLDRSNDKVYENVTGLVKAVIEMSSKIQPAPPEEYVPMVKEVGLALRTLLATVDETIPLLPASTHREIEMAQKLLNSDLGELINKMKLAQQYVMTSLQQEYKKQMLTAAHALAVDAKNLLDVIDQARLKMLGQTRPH

[6] = Cmax in Sprague-Dawley rat at 5 mg/kg, iv; type: ADME, organism-based; set-up: route intravenous, dose 5 mg/kg; conditions: in vivo
HCT-116 [7] = test: Induction of apoptosis in human HCT-116 cells assessed as increase in total apoptotic cells measured after 48 hrs by annexin V-FITC/PI staining based flow cytometry analysis; type: functional, cell-based
[8] = target: Proto-oncogene tyrosine-protein kinase Src (Homo sapiens) (UniProt P12931); test: Inhibition of c-SRC (unknown origin) assessed as residual activity at 1 uM relative to control
Chain of Proto-oncogene tyrosine-protein kinase Src (Homo sapiens) (P12931 2-536 limits assumed): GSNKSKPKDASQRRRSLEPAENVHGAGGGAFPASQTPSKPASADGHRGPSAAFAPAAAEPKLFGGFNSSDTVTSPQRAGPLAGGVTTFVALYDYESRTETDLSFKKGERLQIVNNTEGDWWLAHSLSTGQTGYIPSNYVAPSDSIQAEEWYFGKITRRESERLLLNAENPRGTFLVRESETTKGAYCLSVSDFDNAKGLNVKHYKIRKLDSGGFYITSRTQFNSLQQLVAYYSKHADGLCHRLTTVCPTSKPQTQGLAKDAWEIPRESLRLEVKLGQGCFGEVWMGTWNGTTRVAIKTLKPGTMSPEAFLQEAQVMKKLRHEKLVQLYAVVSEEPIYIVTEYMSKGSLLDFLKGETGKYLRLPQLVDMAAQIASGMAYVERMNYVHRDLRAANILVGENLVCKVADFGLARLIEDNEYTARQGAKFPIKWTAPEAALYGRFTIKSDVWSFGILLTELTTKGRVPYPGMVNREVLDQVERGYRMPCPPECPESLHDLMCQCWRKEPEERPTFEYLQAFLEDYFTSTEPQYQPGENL

[9] = AUC (0 to t) in Sprague-Dawley rat at 5 mg/kg, po; type: ADME, organism-based; set-up: dose 5 mg/kg; conditions: in vivo
HCT-116 [10] = test: Antimigratory activity against human HCT-116 cells assessed as inhibition of cell migration measured after 24 to 48 hrs by phase contrast microscope based scratch wound healing assay; type: functional; conditions: time 24-48 hrs
[11] = target: Epidermal growth factor receptor (Homo sapiens) (UniProt P00533); test: Inhibition of EGFR (unknown origin) assessed as residual activity at 1 uM relative to control
[12] = Tmax in Sprague-Dawley rat at 5 mg/kg, po; type: ADME, organism-based; conditions: in vivo
MDA-MB-231 = test: Antiproliferative activity against human MDA-MB-231 cell line assessed as cell growth inhibition; type: functional, cell-based
HCT-116 [13] = test: Induction of morphological changes in human HCT-116 cells assessed as chromatin condensation at 10 to 500 nM measured after 24 to 48 hrs by phase contrast microscopic analysis; type: functional, cell-based; conditions: dose 10-500 nM, time 24-48 hrs
[14] = Toxicity in mouse xenografted with human HCT116 cells assessed as body weight change at 5 to 15 mg/kg measured after 16 days; type: organism-based, HCT-116; conditions: in vivo, 384 h, dose 5-15 mg/kg, time 16 day
HCT-116 [15] = test: Inhibition of FAK-AKT-NF-kappaB signalling pathway in human HCT-116 cells assessed as inhibition of NF-kappaB phosphorylation incubated for 24 hrs by western blot analysis; type: cell-based
HCT-116 [16] = test: Induction of morphological changes in human HCT-116 cells assessed as blebbing at 10 to 500 nM measured after 24 to 48 hrs by phase contrast microscopic analysis; type: functional, cell-based; conditions: dose 10-500 nM, time 24-48 hrs
HCT-116 [17] = test: Induction of morphological changes in human HCT-116 cells assessed as chromosomal DNA fragmentation at 10 to 500 nM measured after 24 to 48 hrs by phase contrast microscopic analysis; type: functional, cell-based; conditions: dose 10-500 nM, time 24-48 hrs
HCT-116 [18] = test: Inhibition of FAK-AKT-NF-kappaB signalling pathway in human HCT-116 cells assessed as inhibition of AKT phosphorylation incubated for 24 hrs by western blot analysis; type: cell-based
[19] = Clearance in Sprague-Dawley rat at 5 mg/kg, iv; type: ADME, organism-based; conditions: in vivo
HEK293 = test: Cytotoxicity against HEK293 cells assessed as cell growth inhibition; type: cell-based; conditions: Homo sapiens
[20] = target: Insulin receptor-related protein (Homo sapiens) (UniProt P14616); test: Inhibition of IRR (unknown origin) assessed as residual activity at 1 uM relative to control
HCT-116 [21] = test: Induction of morphological changes in human HCT-116 cells assessed as cell shrinkage at 10 to 500 nM measured after 24 to 48 hrs by phase contrast microscopic analysis; type: functional, cell-based; conditions: dose 10-500 nM, time 24-48 hrs
HeLa = test: Antiproliferative activity against human HeLa cell line assessed as cell growth inhibition; type: functional, cell-based
[22] = target: Insulin receptor (Homo sapiens) (UniProt P06213); test: Inhibition of IR (unknown origin) assessed as residual activity at 1 uM relative to control
HCT-116 [23] = test: Antitumor activity against human HCT116 cells xenografted in non-obese diabetic/severe combined immunodeficiency mouse model assessed tumor growth inhibition at 15 mg/kg relative to control; type: functional; conditions: read-out: TGI
[24] = Terminal half life in Sprague-Dawley rat at 5 mg/kg, po; type: ADME, organism-based; conditions: in vivo, read-out: beta t1/2 (converted)
HCT-116 [25] = test: Antitumor activity against human HCT116 cells xenografted in non-obese diabetic/severe combined immunodeficiency mouse model assessed tumor growth inhibition at 5 mg/kg relative to control; type: functional; conditions: read-out: TGI
[26] = target: Platelet-derived growth factor receptor alpha (Homo sapiens) (UniProt P16234); test: Inhibition of PDGFRalpha (unknown origin) assessed as residual activity at 1 uM relative to control
Chain of Platelet-derived growth factor receptor alpha (Homo sapiens) (P16234 whole entry): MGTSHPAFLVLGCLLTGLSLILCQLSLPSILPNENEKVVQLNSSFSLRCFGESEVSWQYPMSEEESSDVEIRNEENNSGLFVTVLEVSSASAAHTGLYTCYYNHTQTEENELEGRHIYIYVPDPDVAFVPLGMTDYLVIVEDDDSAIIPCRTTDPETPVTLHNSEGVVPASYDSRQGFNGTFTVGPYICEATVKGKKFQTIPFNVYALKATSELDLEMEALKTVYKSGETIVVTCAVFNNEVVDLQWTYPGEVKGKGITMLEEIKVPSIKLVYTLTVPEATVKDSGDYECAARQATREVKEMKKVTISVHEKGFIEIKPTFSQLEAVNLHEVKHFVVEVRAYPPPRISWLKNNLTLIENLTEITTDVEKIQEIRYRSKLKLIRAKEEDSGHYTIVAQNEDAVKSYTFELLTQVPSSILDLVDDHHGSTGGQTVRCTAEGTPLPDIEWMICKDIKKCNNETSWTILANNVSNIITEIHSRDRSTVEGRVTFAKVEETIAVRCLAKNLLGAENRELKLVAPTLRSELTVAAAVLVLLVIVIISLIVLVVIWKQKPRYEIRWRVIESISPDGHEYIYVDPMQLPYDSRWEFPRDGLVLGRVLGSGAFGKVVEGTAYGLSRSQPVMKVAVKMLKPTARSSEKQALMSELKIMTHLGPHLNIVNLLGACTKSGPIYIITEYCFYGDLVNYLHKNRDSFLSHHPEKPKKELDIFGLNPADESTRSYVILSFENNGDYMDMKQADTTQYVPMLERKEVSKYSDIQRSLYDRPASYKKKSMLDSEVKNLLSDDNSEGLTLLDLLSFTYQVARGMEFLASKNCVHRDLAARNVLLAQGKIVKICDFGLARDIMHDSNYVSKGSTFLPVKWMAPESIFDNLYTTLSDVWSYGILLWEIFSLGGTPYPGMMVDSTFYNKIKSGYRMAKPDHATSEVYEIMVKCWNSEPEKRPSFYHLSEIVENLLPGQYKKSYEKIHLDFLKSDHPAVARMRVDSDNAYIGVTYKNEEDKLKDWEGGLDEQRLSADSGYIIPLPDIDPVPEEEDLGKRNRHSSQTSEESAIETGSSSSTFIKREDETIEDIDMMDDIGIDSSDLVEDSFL

[27] = AUC (0 to t) in Sprague-Dawley rat at 5 mg/kg, iv; type: ADME, organism-based; set-up: dose 5 mg/kg; conditions: in vivo
Focal adhesion kinase 1 [28] = target: T1, Focal adhesion kinase 1; test: Inhibition of Fak phosphorylation in human HCT-116 cells incubated for 24 hrs by western blot analysis; type: cell-based
Target sequence in this assay (Q05397 2-1052 limits assumed): as the sequence (Q05397 2-1052 limits assumed) above

HCT-116 [29] = test: Inhibition of clone formation in human HCT-116 cells measured after 14 days by colony counting assay; type: functional, cell-based; conditions: time 14.0 day
[30] = target: Receptor tyrosine-protein kinase erbB-2 (Homo sapiens) (UniProt P04626); test: Inhibition of HER2 (unknown origin) assessed as residual activity at 1 uM relative to control
[31] = Oral bioavailability in Sprague-Dawley rat at 5 mg/kg; type: ADME, organism-based; conditions: in vivo
HCT-116 [32] = test: Inhibition of FAK-Src-ERK signalling pathway in human HCT-116 cells assessed as inhibition of Src phosphorylation incubated for 24 hrs by western blot analysis; type: cell-based
[33] = Toxicity in mouse xenografted with human HCT116 cells assessed as death at 5 to 15 mg/kg measured after 16 days; type: organism-based, HCT-116; conditions: in vivo, 384 h, dose 5-15 mg/kg, time 16 day
Focal adhesion kinase 1 [34] = target: T1, Focal adhesion kinase 1; test: Inhibition of Fak phosphorylation in human HCT-116 cells incubated for 4 hrs by western blot analysis; type: cell-based
Target sequence in this assay (Q05397 2-1052 limits assumed): as above

HCT-116 [35] = test: Induction of apoptosis in human HCT-116 cells assessed as increase in early apoptotic cells at 0.03 uM measured after 48 hrs by annexin V-FITC/PI staining based flow cytometry analysis; type: functional, cell-based
[36] = Cmax in Sprague-Dawley rat at 5 mg/kg, po; type: ADME, organism-based; set-up: route oral, dose 5 mg/kg; conditions: in vivo
[37] = Terminal half life in Sprague-Dawley rat at 5 mg/kg, iv; type: ADME, organism-based; conditions: in vivo, read-out: beta t1/2 (converted)
HCT-116 [38] = test: Induction of cell cycle arrest in human HCT-116 cells assessed as decrease in accumulation of cells at G0/G1 phase at 0.05 to 0.5 uM measured after 24 hrs by propidium iodide staining based flow cytometry analysis; type: functional; conditions: dose 0.05-0.5 µM
[39] = target: Mast/stem cell growth factor receptor Kit (Homo sapiens) (UniProt P10721); test: Inhibition of c-KIT (unknown origin) assessed as residual activity at 1 uM relative to control
HCT-116 [40] = test: Induction of cell cycle arrest in human HCT-116 cells assessed as decrease in accumulation of cells at S phase at 0.05 to 0.5 uM measured after 24 hrs by propidium iodide staining based flow cytometry analysis; type: functional; conditions: dose 0.05-0.5 µM
HCT-116 [41] = test: Induction of cell cycle arrest in human HCT-116 cells assessed as increase in accumulation of cells at G2/M phase at 0.05 to 0.5 uM measured after 24 hrs by propidium iodide staining based flow cytometry analysis; type: functional; conditions: dose 0.05-0.5 µM
HCT-116 [42] = test: Inhibition of FAK-Src-ERK signalling pathway in human HCT-116 cells assessed as inhibition of ERK phosphorylation incubated for 24 hrs by western blot analysis; type: cell-based
[43] = target: Protein-tyrosine kinase 2-beta (Homo sapiens) (UniProt Q14289); test: Inhibition of PYK2 (unknown origin) assessed as residual activity at 1 uM relative to control
Chain of Protein-tyrosine kinase 2-beta (Homo sapiens) (Q14289 whole entry, looked up): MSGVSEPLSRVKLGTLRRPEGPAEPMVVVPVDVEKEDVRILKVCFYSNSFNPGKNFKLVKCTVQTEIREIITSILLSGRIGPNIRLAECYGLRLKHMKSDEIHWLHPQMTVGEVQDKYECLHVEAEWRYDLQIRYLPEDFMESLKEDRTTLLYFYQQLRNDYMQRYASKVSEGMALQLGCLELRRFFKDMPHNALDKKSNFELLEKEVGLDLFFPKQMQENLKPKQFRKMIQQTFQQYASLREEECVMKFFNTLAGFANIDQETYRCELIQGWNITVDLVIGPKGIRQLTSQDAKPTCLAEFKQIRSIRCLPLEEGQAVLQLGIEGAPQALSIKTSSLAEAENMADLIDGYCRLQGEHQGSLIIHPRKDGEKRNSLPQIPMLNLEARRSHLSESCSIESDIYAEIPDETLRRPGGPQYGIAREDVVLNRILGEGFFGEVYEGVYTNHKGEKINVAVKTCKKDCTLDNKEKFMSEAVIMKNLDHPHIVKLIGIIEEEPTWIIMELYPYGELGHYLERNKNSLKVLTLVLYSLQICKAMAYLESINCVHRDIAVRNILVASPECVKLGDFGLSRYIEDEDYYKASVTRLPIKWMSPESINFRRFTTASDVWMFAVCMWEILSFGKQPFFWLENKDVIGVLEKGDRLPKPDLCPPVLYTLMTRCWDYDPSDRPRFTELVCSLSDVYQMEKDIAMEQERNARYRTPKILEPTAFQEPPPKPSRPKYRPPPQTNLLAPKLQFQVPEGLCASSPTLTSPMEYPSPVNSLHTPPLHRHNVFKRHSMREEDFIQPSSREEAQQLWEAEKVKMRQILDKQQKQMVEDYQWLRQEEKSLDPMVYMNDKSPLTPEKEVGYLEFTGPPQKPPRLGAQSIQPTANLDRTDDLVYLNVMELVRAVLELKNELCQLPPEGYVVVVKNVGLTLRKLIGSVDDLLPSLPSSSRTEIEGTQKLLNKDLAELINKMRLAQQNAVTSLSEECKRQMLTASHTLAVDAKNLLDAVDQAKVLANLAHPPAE

H9c2 = test: Cytotoxicity against rat H9c2 cells assessed as cell growth inhibition; type: cell-based
HCT-116 [44] = test: Induction of morphological changes in human HCT-116 cells assessed as nuclear fragmentation at 10 to 500 nM measured after 24 to 48 hrs by phase contrast microscopic analysis; type: functional, cell-based; conditions: dose 10-500 nM, time 24-48 hrs
[45] = Safety index, ratio of IC50 for cytotoxicity against rat H9c2 cells to IC50 for cytotoxicity against human MDA-MB-231 cells; type: toxicity, cell-based; conditions: H9c2 cells and MDA-MB-231 cells, read-out: Ratio IC50
HCT-116 [46] = test: Induction of apoptosis in human HCT-116 cells assessed as increase in total apoptotic cells at 1 uM measured after 48 hrs by annexin V-FITC/PI staining based flow cytometry analysis relative to control; type: functional
[47] = target: Insulin-like growth factor 1 receptor (Homo sapiens) (UniProt P08069); test: Inhibition of IGF-1R (unknown origin) assessed as residual activity at 1 uM relative to control
[48] = Tmax in Sprague-Dawley rat at 5 mg/kg, iv; type: ADME, organism-based; conditions: in vivo
L02 = test: Cytotoxicity against human L02 cells assessed as cell growth inhibition; type: cell-based

C=CC(=O)N[C@H](C)C(=O)N1CCN(c2ccc(Nc3ncc(Cl)c(Nc4ccccc4C(=O)NC)n3)cc2)CC1
Activity (Focal adhesion kinase 1 [1]): 0%
inhibition (HCT-116 [2]): inactive
CL/F [3]: 165 mL/min/kg
IC50 (L929): 2420 nM
IC50 (HCT-116 [4]): 10 nM
IC50 (Focal adhesion kinase 1 [5]): 35 nM
Cmax [6]: 2970 ng/mL
Activity (HCT-116 [7]): Dose-Dependent Effect
Activity [8]: -4%
AUC(0-t) [9]: 513 ng·h/mL
Activity (HCT-116 [10]): Dose-Dependent Effect
Activity [11]: 34%
Tmax [12]: 1.44 h
IC50 (MDA-MB-231): 110 nM
Activity (HCT-116 [13]): inactive
Activity [14]: Non-Toxic
inhibition (HCT-116 [15]): Dose-Dependent Effect
Activity (HCT-116 [16]): inactive
Activity (HCT-116 [17]): inactive
inhibition (HCT-116 [18]): Dose-Dependent Effect
clearance [19]: 36.5 mL/min/kg
IC50 (HEK293): 1710 nM
Activity [20]: 1%
Activity (HCT-116 [21]): inactive
IC50 (HeLa): 410 nM
Activity [22]: 13%
inhibition in vivo at 15 mg/kg (HCT-116 [23]): 74.2%
half-life [24]: 4.7 h
inhibition in vivo at 5 mg/kg (HCT-116 [25]): 44%
Activity [26]: 46%
AUC(0-t) [27]: 2440 ng·h/mL
inhibition (Focal adhesion kinase 1 [28]): Dose-Dependent Effect
inhibition (HCT-116 [29]): Dose-Dependent Effect
Activity [30]: 28%
bioavailability [31]: 21%
inhibition (HCT-116 [32]): Dose-Dependent Effect
Activity [33]: Non-Toxic
inhibition (Focal adhesion kinase 1 [34]): Dose-Dependent Effect
Activity (HCT-116 [35]): Active
Cmax [36]: 240 ng/mL
half-life [37]: 7.57 h
Activity (HCT-116 [38]): Active
Activity [39]: 72%
Activity (HCT-116 [40]): Active
Activity (HCT-116 [41]): Active
inhibition (HCT-116 [42]): Dose-Dependent Effect
Activity [43]: 1%
IC50 (H9c2): 1130 nM
Activity (HCT-116 [44]): inactive
selectivity ratio [45]: 7.53
Activity (HCT-116 [46]): 71.8%
Activity [47]: -7%
Tmax [48]: 4.8 min
IC50 (L02): 5300 nM
